We go through 34 compounds from patent US9820972B2, “Antiviral compounds highly effective as HCV-NS5A inhibitor” (priority 2013, dated 2017).

One assay deals with GT-1a of NS5A Replicon. The assay can be described thus: HCV double reporter gene (Renilla luciferase) replicon assay, GT-1a. Format: cell-based, Hepatitis C virus (HCV). To be noted: GT-1a replicon; class symbols; read-out: EC50 For GT-1a of NS5A Replicon. As for the experimental part:
Antiviral Assay for Inhibition Activity (EC50):
The study is completed by a new constructed double reporter genes replicon assay system, the capacity of viral replicon in infected cell is determined by detecting the reporter gene Renilla luciferase. The relationship of reporter genes, HCV RNA replicon and viral proteins is well linear. 8 gradient concentrations for 2-fold dilution, 3 wells, 3 times repetition and 1 or 2 control drugs are set to finally determine EC50 of compound.
THF was distilled from sodium metal and benzophenone. DCM, pentane and hexane were distilled form calcium hydride. Special raw material and intermediate in the invention were ordered by contract synthesis from Zannan SciTech Co., Let in China, others reagents were purchased from Shanghai reagent company, Aldrich, Acros etc. As intermediates or products during the synthesis is not required for the reaction and other tests the next step, the synthesis is repeated until a sufficient number of times. The invention of the prepared compounds of […] (HCV NS5A) inhibitory activity test was performed by CRO service units such as WuXi AppTec etc.
Background: In a reporter assay the amount or activity of a reporter protein is the signal.
Regarding `COC(=O)NC(C(=O)N1CC=C[C@H]1c1ncc(-c2ccc(-c3ccc(-c4cnc([C@@H]5CCCN5C(=O)[C@@H](NC(=O)OC)C(C)C)[nH]4)cc3)cc2)[nH]1)C1CCCCC1` (stereo partly shown) [Compound 6dj], the EC50 – broadly, the midpoint of the concentration-response curve – was 1 to 49.9 nM.

The assay is the same for the next values; noted with them: Hepatitis C virus, GT1A, GT-1a replicon; class symbols; read-out: EC50 For GT-1a of NS5A Replicon.
Consider `COC(=O)NC(C(=O)N1CCC[C@H]1c1nc(-c2ccc(-c3ccc(-c4c[nH]c(C5CN(C(=O)N6Cc7ccc8c(c7C6)OCO8)CN5C(=O)[C@@H](NC(=O)OC)C(C)C)n4)cc3)cc2)c[nH]1)c1ccccc1` (stereo partly shown) [Compound 6ay], for which the EC50 lay in the range of 0.001 to 0.999 nM.
Same read-out and setting: then `COC(=O)N[C@H](C(=O)N1CCCC1c1nc(-c2ccc(-c3ccc(-c4c[nH]c([C@@H]5CCCN5C(=O)C5(NC(=O)OC)CC5)n4)cc3)cc2)c[nH]1)C(C)C` (stereo partly shown) [Compound 6y], with 0.001 to 0.999 nM; and `COC(=O)N[C@H](C(=O)N1CN(C(=O)N2Cc3ccccc3C2)CC1c1nc(-c2ccc(-c3ccc(-c4c[nH]c([C@@H]5CCCN5C(=O)[C@@H](NC(=O)OC)C(C)C)n4)cc3)cc2)c[nH]1)C(C)C` (stereo partly shown) [Compound 6aq], with 0.001 to 0.999 nM; and `COC(=O)N[C@H](C(=O)N1CC(OC(=O)N2Cc3cc4c(cc3C2)OCO4)CC1c1nc(-c2ccc(-c3ccc(-c4c[nH]c([C@@H]5CC6(CC6)CN5C(=O)[C@@H](NC(=O)OC)C(C)C)n4)cc3)cc2)c[nH]1)C(C)C` (stereo partly shown) [Compound 6ak], with 0.001 to 0.999 nM.
With `COC(=O)N[C@H](C(=O)N1CCCC1c1nc2cc(-c3ccc4c(c3)C(F)(F)c3cc(-c5c[nH]c([C@@H]6C=CCN6C(=O)[C@@H](NC(=O)OC)C(C)C)n5)ccc3-4)ccc2[nH]1)C(C)C` (stereo partly shown) [Compound 6bq], the EC50 is 0.001 to 0.999 nM.
In the case of `COC(=O)N[C@H](C(=O)N1CN(C(=O)N2Cc3ccc4c(c3C2)OCO4)CC1c1nc(-c2ccc(-c3ccc(-c4c[nH]c([C@@H]5CC6(CC6)CN5C(=O)[C@@H](NC(=O)OC)C(C)C)n4)cc3)cc2)c[nH]1)C(C)C` (stereo partly shown) [Compound 6ap], the half-maximal effective concentration (EC50) was in the range of 0.001 to 0.999 nM.
`COC(=O)N[C@@H](C(=O)N1CC=C[C@H]1c1ncc(-c2cc3sc(-c4ccc(-c5cnc([C@@H]6CCCN6C(=O)[C@H](NC(=O)OC)c6ccccc6)[nH]5)cc4)cc3s2)[nH]1)c1ccccc1` [Compound 6fk]: the EC50 lay in the range of 0.001 to 0.999 nM.
The same measure, in the same setting: then `COC(=O)N[C@H](C(=O)N1CN(C(=O)N2Cc3cccc(OC)c3C2)CC1c1nc(-c2ccc(-c3ccc(-c4c[nH]c([C@@H]5CCCN5C(=O)[C@@H](NC(=O)OC)C(C)C)n4)cc3)cc2)c[nH]1)C(C)C` (stereo partly shown) [Compound 6aw], with 0.001 to 0.999 nM; and `COC(=O)N[C@@H](C(=O)N1CC=C[C@H]1c1ncc(-c2ccc(-c3cc4sc(-c5cnc([C@@H]6CCCN6C(=O)[C@H](NC(=O)OC)c6ccccc6)[nH]5)cc4[nH]3)cc2)[nH]1)c1ccccc1` [Compound 6fx], with 0.001 to 0.999 nM; and `COC(=O)N[C@H](C(=O)N1CN(C(=O)N2Cc3cc4c(cc3C2)OCO4)CC1c1nc(-c2ccc(-c3ccc(-c4c[nH]c([C@@H]5CCCN5C(=O)[C@@H](NC(=O)OC)C(C)C)n4)cc3)cc2)c[nH]1)C(C)C` (stereo partly shown) [Compound 6af], with 0.001 to 0.999 nM.
The same measure, in the same setting: then `COC(=O)N[C@H](C(=O)N1CN(C(=O)N2Cc3cc4c(cc3C2)OCO4)CC1c1nc(-c2cc3sc(-c4ccc(-c5c[nH]c([C@@H]6CCCN6C(=O)[C@@H](NC(=O)OC)C(C)C)n5)cc4)cc3s2)c[nH]1)C(C)C` (stereo partly shown) [Compound 6fa], with 0.001 to 0.999 nM; and `COC(=O)N[C@H](C(=O)N1CCC[C@H]1c1nc(-c2ccc(-c3ccc(-c4cnc([C@@H]5C[C@@H](OC(=O)N6Cc7cccc(F)c7C6)CN5C(=O)[C@@H](NC(=O)OC)C(C)C)[nH]4)cc3)cc2)c[nH]1)C(C)C` [Compound 6s], with 0.001 to 0.999 nM.
`COC(=O)N[C@H](C(=O)N1CN(C(=O)N2Cc3ccc4c(c3C2)OCO4)CC1c1nc(-c2ccc(-c3ccc(-c4c[nH]c([C@@H]5CCCN5C(=O)[C@@H](NC(=O)OC)C(C)C)n4)cc3)cc2)c[nH]1)C(C)C` (stereo partly shown) [Compound 6ae]: the concentration giving a half-maximal response (EC50) was in the range of 0.001 to 0.999 nM.
As for `COC(=O)N[C@H](C(=O)N1CC(OC(=O)N2Cc3cc4c(cc3C2)OCO4)CC1c1nc(-c2ccc(-c3cccc4c(-c5c[nH]c([C@@H]6CCCN6C(=O)[C@@H](NC(=O)OC)C(C)C)n5)cccc34)cc2)c[nH]1)C(C)C` (stereo partly shown) [Compound 6bu], the half-maximal effective concentration (EC50) lay within 0.001 to 0.999 nM.
Same read-out and setting: then `COC(=O)N[C@H](C(=O)N1CCC[C@H]1c1nc(-c2ccc(-c3ccc(-c4cnc([C@@H]5C[C@@H](OC(=O)N6Cc7cc8c(cc7C6)OCO8)CN5C(=O)[C@@H](NC(=O)OC(C)(C)C)C(C)C)[nH]4)cc3)cc2)c[nH]1)C(C)C` [Compound 6m], with 1 to 49.9 nM; and `COC(=O)N[C@H](C(=O)N1CC(OC(=O)N2Cc3ccc4c(c3C2)OCO4)CC1c1nc(-c2ccc(-c3ccc(-c4c[nH]c([C@@H]5CC6(CC6)CN5C(=O)[C@@H](NC(=O)OC)C(C)C)n4)cc3)cc2)c[nH]1)C(C)C` (stereo partly shown) [Compound 6an], with 0.001 to 0.999 nM.
Still for that read-out and setting: then `COC(=O)N[C@H](C(=O)N1CC=CC1c1ncc(-c2ccc(-c3csc4c(-c5c[nH]c([C@@H]6CCCN6C(=O)[C@H](NC(=O)OC)c6ccccc6)n5)csc34)cc2)[nH]1)C(C)C` (stereo partly shown) [Compound 6ft], with 0.001 to 0.999 nM; and `COC(=O)N[C@H](C(=O)N1CCC[C@H]1c1ncc(-c2cc3sc(-c4ccc(-c5cnc([C@@H]6C=CCN6C(=O)[C@H](NC(=O)OC)c6ccccc6)[nH]5)cc4)cc3s2)[nH]1)C(C)C` [Compound 6fj], with 0.001 to 0.999 nM; and `CC(C)[C@H](NC(=O)OC1CCCC1)C(=O)N1CCC[C@H]1c1nc(-c2ccc(-c3ccc(-c4cnc([C@@H]5C[C@@H](OC(=O)N6Cc7cccc(F)c7C6)CN5C(=O)[C@@H](NC(=O)OC5CCCC5)C(C)C)[nH]4)cc3)cc2)c[nH]1` [Compound 6v], with > 50 nM.
Turning to `COC(=O)NC(C(=O)N1CCC[C@H]1c1nc(-c2cc3sc(-c4ccc(-c5c[nH]c(C6CN(C(=O)N7Cc8cc9c(cc8C7)OCO9)CN6C(=O)[C@@H](NC(=O)OC)C(C)C)n5)cc4)cc3s2)c[nH]1)c1ccccc1` (stereo partly shown) [Compound 6fb], the EC50 lay within 0.001 to 0.999 nM.
As to `COC(=O)N[C@H](C(=O)N1CCC[C@H]1c1nc(-c2csc3c(-c4ccc(-c5cnc(C6C=CCN6C(=O)[C@H](NC(=O)OC)c6ccccc6)[nH]5)cc4)csc23)c[nH]1)C(C)C` (stereo partly shown) [Compound 6fr], the EC50 fell in the range of 0.001 to 0.999 nM.
Still for that read-out and setting: then `COC(=O)N[C@H](C(=O)N1CCCC1c1nc2cc(-c3ccc4c(c3)C(F)(F)c3cc(-c5c[nH]c([C@@H]6CN(C(=O)N7Cc8cc9c(cc8C7)OCO9)CN6C(=O)[C@@H](NC(=O)OC)C(C)C)n5)ccc3-4)ccc2[nH]1)C(C)C` (stereo partly shown) [Compound 6bs], with > 50 nM; and `COC(=O)NC(C(=O)N1CC=C[C@H]1c1ncc(-c2ccc(-c3cc4sc(-c5cnc([C@@H]6CCCN6C(=O)[C@H](NC(=O)OC)c6ccccc6)[nH]5)cc4o3)cc2)[nH]1)c1ccccc1` (stereo partly shown) [Compound 6fw], with 0.001 to 0.999 nM; and `COC(=O)N[C@H](C(=O)N1CCC[C@H]1c1nc(-c2ccc(-c3ccc(-c4cnc([C@@H]5C[C@@H](OC(=O)N6Cc7ccc8c(c7C6)OCO8)CN5C(=O)[C@@H](NC(=O)OC(C)(C)C)C(C)C)[nH]4)cc3)cc2)c[nH]1)C(C)C` [Compound 6d], with 1 to 49.9 nM.
Take `COC(=O)N[C@H](C(=O)N1CCC[C@H]1c1ncc(-c2ccc(-c3ccc(-c4cnc([C@@H]5CCCN5C(=O)[C@@H](NC(=O)N(C)C)C(C)C)[nH]4)cc3)cc2)[nH]1)C(C)C` [Compound 6de]: the EC50 lay within 0.001 to 0.999 nM.
With `COC(=O)N[C@H](C(=O)N1CC(OC(=O)N2Cc3cc4c(cc3C2)OCO4)CC1c1nc2cc(-c3ccc4c(c3)C(F)(F)c3cc(-c5c[nH]c([C@@H]6CCCN6C(=O)[C@@H](NC(=O)OC)C(C)C)n5)ccc3-4)ccc2[nH]1)C(C)C` (stereo partly shown) [Compound 6br], the half-maximal effective concentration (EC50) was in the range of 0.001 to 0.999 nM.
Still for that read-out and setting: then `CC(C)C(NC(=O)N(C)C)C(=O)N1CC=C[C@H]1c1nc(-c2ccc(-c3ccc(-c4c[nH]c(C5CCCN5C(=O)[C@@H](NC(=O)N(C)C)C(C)C)n4)cc3)cc2)c[nH]1` (stereo partly shown) [Compound 6cg], with 0.001 to 0.999 nM; and `CC(C)(C)OC(=O)N[C@H](C(=O)N1CCC[C@H]1c1nc(-c2ccc(-c3ccc(-c4cnc([C@@H]5C[C@@H](OC(=O)N6Cc7cc8c(cc7C6)OCO8)CN5C(=O)[C@@H](NC(=O)OC(C)(C)C)C(C)(C)C)[nH]4)cc3)cc2)c[nH]1)C(C)(C)C` [Compound 6k], with > 50 nM; and `CC(C)[C@H](NC(=O)OC(C)(C)C)C(=O)N1CCC[C@H]1c1nc(-c2ccc(-c3ccc(-c4cnc([C@@H]5C[C@@H](OC(=O)N6Cc7cc8c(cc7C6)OCO8)CN5C(=O)[C@@H](NC(=O)OC(C)(C)C)C(C)C)[nH]4)cc3)cc2)c[nH]1` [Compound 6j], with > 50 nM.
Consider `COC(=O)N[C@H](C(=O)N1CC=CC1c1nc(-c2ccc(-c3ccc(-c4c[nH]c([C@@H]5CCCN5C(=O)C5(NC(=O)OC)CCCC5)n4)cc3)cc2)c[nH]1)C(C)C` (stereo partly shown) [Compound 6bi], for which the EC50 is 0.001 to 0.999 nM.
Same read-out and setting: then `COC(=O)N[C@H](C(=O)N1CN(C(=O)N2Cc3ccc(Cl)cc3C2)CC1c1nc(-c2ccc(-c3ccc(-c4c[nH]c([C@@H]5CCCN5C(=O)[C@@H](NC(=O)OC)C(C)C)n4)cc3)cc2)c[nH]1)C(C)C` (stereo partly shown) [Compound 6au], with 0.001 to 0.999 nM.

Still in this assay, the particulars now being: Hepatitis C virus, GT1A, read-out: EC50 For GT-1a of NS5A Replicon.
As to `CC(C)[C@H](NC(=O)OC1CCCC1)C(=O)N1C[C@H](OC(=O)N2Cc3cc4c(cc3C2)OCO4)C[C@H]1c1nc(-c2ccc(-c3ccc(-c4cnc([C@@H]5C[C@@H](OC(=O)N6Cc7cc8c(cc7C6)OCO8)CN5C(=O)[C@@H](NC(=O)OC5CCCC5)C(C)C)[nH]4)cc3)cc2)c[nH]1` [Compound 6q], the EC50 was > 50 nM.
As to `COC(=O)N[C@H](C(=O)N1C[C@H](OC(=O)N2Cc3ccc4c(c3C2)OCO4)C[C@H]1c1nc(-c2ccc(-c3ccc(-c4cnc([C@@H]5C[C@@H](OC(=O)N6Cc7ccc8c(c7C6)OCO8)CN5C(=O)[C@@H](NC(=O)OC)C(C)C)[nH]4)cc3)cc2)c[nH]1)C(C)C` [Compound 6e], the EC50 was > 50 nM.
